Laboratory results published in patent publication US7166612B2, “Methods for reducing platelet activation platelet aggregaton or thrombosis” (Beth Israel Deaconess Medical Center, priority 2001, dated 2007).

Experiments:
platelet GPIIbIIIa = experiment: SFLLR-induced GPIIbIIIa activation (PAC-1 antibody, flow cytometry); type: cell-based, human; details: in words
Description: In order to assay platelet activation by cell surface marker expression, fresh PRP is isolated from donors who have not ingested aspirin for two weeks prior to donation. PRP (40 μl) is incubated with known or suspected inhibitor in DMSO or DMSO alone for 15 min. The sample is then incubated with the indicated agonist (e.g., SFLLR) for 10 min. Following incubation of the sample with the indicated agonist, 10 μl of reaction mixture is transferred to 5 μl of phycoerythrin (PE)-conjugated AC 1.2 anti-P-selectin antibody (for assessment of P-selectin surface expression) or fluorescein isothiocyanate (FITC)-conjugated PAC-1 antibody (for assessment of GPIIbIIIa activation). PBS (500 μl) is added to the sample after a 20 min incubation and the platelets are analyzed immediately by flow cytometry. […] A 530/30 band pass filter is used for FL-1 fluorescence. A 585/42 band pass filter is used for FL-2 fluorescence. FITC is measured in the FL-1 channel and PE is measured in the FL-2 channel. Data are analyzed using, for example, CellQuest software on a Macintosh PowerPC, or their equivalents.
Compounds were also tested by flow cytometry for the inhibition of SFLLR-induced GPIIbIIIa activation and P-selectin expression. […] PBS (500 μl) was added to the sample after a 20 min incubation and the platelets were analyzed immediately by flow cytometry. […] A 530/30 band pass filter was used for FL-1 fluorescence. […]

[1] = test system: laser-induced thrombi in cremaster arterioles; type: in vivo
From the text: A preferred animal model involves intravital microscopy of laser-induced thrombi. The method is described by Rosen et al., 2001, Am J Pathol 158, 1613–1622, which is incorporated herein by reference. Minor variations of that method were employed as described below.
Experimental mice are pre-anesthetized and surgically prepared. A tracheal tube is placed to facilitate breathing and the jugular vein is canulated to allow for maintenance of anesthetic and introduction of compound. The cremaster muscle is then exteriorized. The muscle is affixed over a glass slide, allowing illumination from below. A steady drip of a sodium-bicarbonate buffered salt solution is maintained throughout the experiment to keep the exposed muscle moist. Blood flow in the muscle is visualized using a 40× water immersion lens and epi-illuminated with an appropriately filtered light source. Alexa 488-labeled anti-mouse CD41 antibody is injected through the jugular canulus to label platelets in vivo.
Thrombosis is initiated by damaging the vessel wall (of a 30 μm vessel) with a laser pulse from a MicroPoint LASER attached to the microscope. A LASER pulse is delivered, causing damage in an area smaller than 1 μm. The recruitment of platelets to the thrombus is then monitored by the accumulation of (activated) Alexa 488-labeled platelets at the ablation site using fluorescence microscopy, and the process is recorded digitally. The method thus permits in vivo analysis of platelet activation as measured by platelet aggregation and thrombosis.
The degree of embolization in an untreated mouse can be quantified using software for image analysis, e.g., BioQuant True Color Windows (Biometrics, Nashville, Tenn.), as described in Rosen et al., 2001, supra. The software package permits the determination of the “integrated optical density” or IOD of the thrombus.
Using quantitative intravital fluorescence videomicroscopy with high temporal resolution (111 images/second), the effect of PDE3 inhibition on the platelet recruitment into thrombi was directly observed over time. Platelets were fluorescently labeled by infusing rat-anti-mouse CD41 and Alexa 488-anti-rat IgG through a cannulated jugular vein. The cremaster microvasculature was exposed and mapped and suitable arteriole segments were selected for laser-induced injury. A series of control injuries were generated prior to infusion of the inhibitory compound. The power and the number of laser pulses required to generate each thrombus was recorded. Platelet accumulation to the thrombi following laser ablation was recorded using digital videomicroscopy. The thrombus total fluorescence in each frame of the videos was analyzed using Slidebook software for digital videomicroscopy. The pyridazinone compound was then infused. Following a 15 minute incubation, a series of experimental injuries were generated 250 μm proximal, with relationship to blood flow, of the first injury and the resultant thrombi were recorded. The power and the number of pulses required to induce the control thrombus was used to induce the experimental thrombus. The control and experimental thrombi constituting a pair were compared for statistical analysis. The total fluorescence intensity of the thrombi before and after the infusion of pyridazinone compound was recorded.
Images from a representative experiment of the recruitment of fluorescently-labeled […] platelets into a growing thrombus over time is shown in FIG. 9A.

## CC1CC(=O)NN=C1c1ccc(N)c([N+](=O)[O-])c1 (stereo not shown) [6-(4-Amino-3-nitro-phenyl)-5-methyl-4,5-dihydro-2H-pyridazin-3-one]
Platelet GPIIbIIIa
  SFLLR-induced αIIbβ3 activation measured using PAC-1 antibodies: inhibited
[1]; 0.6 mg/kg (P<0.05) and 1.2 mg/kg (P<0.01), in words
  stabilized platelet accumulation: dose-dependent inhibition
[1]; 0.6 and 1.2 mg/kg, P<0.05, in words
  maximum platelet accumulation compared to absence of compound: statistically significant decrease
[1]; after laser injury, not affected by PDE3 inhibition, 0.3 and 1.2 mg/kg
  time to achieve the maximum rate of platelet recruitment: approximately 27 seconds
